# Reference: patent US4029790A, “1-Benzoyl-2 or 4 [2-(4-phenyl-piperazino)-ethyl]-piperidines” (Centre European de Recherches Mauvernay, priority 1974, dated 1977)
# Like-named read-outs stand apart in the source and are kept apart here.
# Key:
# [1] = test system: electrical stimulation of the upper laryngic nerve; test: Antitussive properties in the Cat (test of Domenjoz, electrical stimulation of the upper laryngic nerve); format: in vivo; details: for inhibition in vivo at 10 mg/kg / inhibition in vivo at 20 mg/kg: Felis catus, intraduodenal, read-out: Antitussive activity, Mean (percentage of inhibition); for inhibition in vivo at 20 mg/kg: 20 mg/kg I.D.
# Method: The bronchospasmolytic and also antitussive activities of these compounds were investigated by means of the following tests:
# 2. Investigation of Antitussive Properties in the Cat
# The test used was then of Domenjoz R.(Arch. Exp. Pathol. v. Pharmacol. 215, 1952).
# The electrical stimulation of the upper laryngic nerve had the following characteristics: 2v, 6 Hz square waves of 5 msec - period of stimulation 10 to 20 seconds at intervals of 7 minutes 5 seconds. The activity of the product was evaluated as a percentage of inhibition.
# Histaminic bronchospasm = Histaminic bronchospasm in the Guinea Pig (histamine aerosol technique); format: in vivo; details: for responders at 50 mg/kg: 50 mg/kg P.O., 45 minutes after treatment, 0.3% histamine aerosol; for ED50: read-out: Bronchospasmolytic activity ED50; for affinity for the bronchopulmonary system; activities (in words): summary of Table II; for responders at 25 mg/kg: * Dose used: 25 mg/kg P.O.
# [2] = Cavia porcellus, po, 0.75 h, read-out: Bronchospasmolytic activity, % activity
# [3] = Cavia porcellus, po, 0.75 h, P.O., linearisation method, ] [: 5% confidence limit of ED50
Compound,responders at 50 mg/kg (Histaminic bronchospasm; [2]),ED50 (Histaminic bronchospasm; [3]),affinity for the bronchopulmonary system; activities (in words) (Histaminic bronchospasm),inhibition in vivo at 20 mg/kg [1],other results
O=C(c1ccccc1)N1CCCCC1CCN1CCN(c2ccc(F)cc2)CC1 (stereo not drawn) [Compound 1],60%,–,–,–,inhibition in vivo at 10 mg/kg ([1]; 10 mg/kg I.D.): 73.7 ± 13.7%; antitussive properties (in words) ([1]; summary of Table II): interesting antitussive properties
O=C(c1ccc(Cl)cc1)N1CCCCC1CCN1CCN(c2ccc(F)cc2)CC1 (stereo not drawn) [Compound 2],100%,25 mg/kg,particularly marked,–,inhibition in vivo at 10 mg/kg ([1]; 10 mg/kg I.D.): 0%
"O=C(c1ccc(F)cc1)N1CCCCC1CCN1CCN(c2ccc(F)cc2)CC1 (stereo not drawn) [Compound 4, 1-(4-fluoro)-benzoyl-2-{2-[4-(4-fluoro)phenyl]piperazinyl} ethyl piperidine]",100%,5.7 mg/kg,particularly marked,–,inhibition in vivo at 10 mg/kg ([1]; 10 mg/kg I.D.): 58.6 ± 19.2%
O=C(c1ccccc1)N1CCCCC1CCN1CCN(c2ccc(Cl)cc2)CC1 (stereo not drawn) [Compound 7],60%,–,–,74%,–
O=C(c1ccc(Cl)cc1)N1CCCCC1CCN1CCN(c2cccc(Cl)c2)CC1 (stereo not drawn) [Compound 9],80%,13 mg/kg,–,–,–
"O=C(c1ccc(Cl)cc1)N1CCC(CCN2CCN(c3ccc(Cl)cc3)CC2)CC1 [Compound 10, 1-(4-chloro)benzolyl-4-{2-[4-(4-chloro)phenyl] -piperazinyl} -ethyl piperidine]",100%,–,–,0%,–
O=C(c1ccc(F)cc1)N1CCC(CCN2CCN(c3ccc(Cl)cc3)CC2)CC1 [Compound 12],70%,30.9 mg/kg,–,0%,–
O=C(c1ccc(Cl)cc1)N1CCC(CCN2CCN(c3ccc(F)cc3)CC2)CC1 [Compound 13],–,11.6 mg/kg,particularly marked,0%,responders at 25 mg/kg (Histaminic bronchospasm; [2]): 100%
O=C(c1ccc(F)cc1)N1CCC(CCN2CCN(c3ccc(F)cc3)CC2)CC1 [Compound 14],–,0.94 mg/kg,particularly marked,44.7 ± 29.3%,responders at 25 mg/kg (Histaminic bronchospasm; [2]): 100%
"COc1ccc2c(c1)C13CCCCC1C(C2)N(C)CC3 (stereo not drawn) [Dextrome-torphane, Dextrometorphane, reference compound]",–,–,–,–,inhibition in vivo at 10 mg/kg [1]: 76.2 ± 34%; responders at 100 mg/kg (Histaminic bronchospasm; [2]): 0%
"CN(C)CCOC(c1ccccc1)c1ccccc1 [Diphenyl-dramine, Diphenyldramine, reference compound]",–,–,–,–,"inhibition in vivo at 10 mg/kg [1]: 65.3 ± 9.5%; responders at 10 mg/kg (Histaminic bronchospasm; Cavia porcellus, inhaled or nasal, 0.75 h, read-out: Bronchospasmolytic activity, % activity): 93%; ED50 (Histaminic bronchospasm; Cavia porcellus, po, 0.75 h): 4.5 mg/kg"
